# Test results: a melting point compilation (Tetko et al.; mined from patent text by program, amines drawn as free bases though some values may be those of a salt)
row,Compound,melting point
1,CN1CC(CCN2CCC(c3c[nH]c4ccccc34)CC2)C=C2c3cccc4[nH]cc(c34)CC21 (configuration not stated),184 to 187 °C
2,O=C(O)CCCC(c1ccccc1)c1ccccc1,87 to 90 °C
3,COc1ccc(C(=O)NNC(C)=N)cc1,179 to 181 °C
4,CCP1(=O)c2ccccc2CN1c1ccccc1 (configuration not stated),116 to 120 °C
5,CCc1nc2c(cnn2CC)c(NC2CCOCC2)c1CNC(=O)c1cccc(C(=O)NCc2ccc(F)c(-c3cccc(CN4CC5CC4CN5)c3)c2)c1 (configuration not stated),129 to 133 °C
6,COc1ccc2c(CBr)c(Br)ccc2c1C(F)(F)F,142 to 143 °C
7,CCCCc1nnc(S(=O)Cc2ccc(OC)cc2)n1Cc1ccc(OC(C(=O)O)c2ccccc2)cc1 (configuration not stated),74 to 75 °C
8,Cc1noc(C)c1-c1nn(Cc2ccccc2)c(=O)c2ccccc12,186 to 188 °C
9,CCOC(=O)c1cc2c(nc1C)C(=Cc1ccco1)CCC2,119 to 120 °C
10,CCNC(=O)c1cccc(-c2c(CC(=O)Nc3ccc(Cl)cc3C(F)(F)F)c(=O)oc3cc(Cl)c(C)cc23)c1,220 to 222 °C
11,O=C1C2CCN(CC2)C1CC(c1ccccc1)c1ccccc1 (configuration not stated),107 °C
12,CCCc1c(OCCCCCc2c(O)c(O)c(Cl)c(Cl)c2Cl)ccc(C(=O)O)c1O,193 to 196 °C
13,Cc1nc2cc(NC(=O)c3cc4cc(F)ncc4n3Cc3cccc(F)c3)ccc2n1C,245 to 247 °C
14,CCOC(=NC(=O)c1ccc(C(F)(F)F)cc1)N1Cc2ccccc2-c2ccccc2C1,112 to 113 °C
15,CCOCc1cc2cc(Br)ccc2oc1=Nc1ccc(C)cc1,116 to 117 °C
16,CON1C(=O)CC2(CCN(CNC(=O)c3ccccc3O)CC2)C1=O,96 to 99 °C
17,CCOc1nc2c(N)nc3cccnc3c2n1[C@@H](C)c1ccccc1,187 to 190 °C
18,Cc1cc(C2=NOC(c3cc(Cl)cc(Cl)c3)(C(F)(F)F)C2)ccc1C(=O)NC1CON(C)C1=O (configuration not stated),87 °C
19,CSCC(=O)[C@H](Cc1ccc(O)cc1)NC(=O)[C@H](CC(C)C)NC(=O)OCc1ccccc1,108 to 111 °C
20,COCCc1nc2c(N)nc3ccccc3c2n1CCCCCCCCNS(=O)(=O)c1ccccc1,146 to 149 °C

row,Compound,melting point
1,CCOC(=O)C(=O)C1C(=O)c2c(OC)ccc3c2C1CCO3 (configuration not stated),104 to 106 °C
2,O=C(Nc1cc(S(=O)(=O)NC(CO)CO)sc1Cl)c1cnn2c(C(F)(F)F)cc(-c3ccc(C(F)(F)F)cc3)nc12,225 °C
3,C=CCOC(=O)C1=C(C)NC(C)=C(C(=O)OC)C1c1cc(Br)c(OC)c(OC)c1 (configuration not stated),123 to 124 °C
4,CCOC1CCC2(C)C(=CCC3C4CCC(=O)C4(C)CCC32)C1 (configuration not stated),146 to 147 °C
5,O=C(NCc1ncccn1)c1cnc(N2CCC[C@H]2CO)nc1NCc1cccc(Cl)c1,153 to 156 °C
6,COc1c(N=[N+]=[N-])ccnc1C#N,102 °C
7,CCOCCN(CC1=CCC(N)(Oc2ccccc2)C=C1)C(=O)C(Cl)Cl (configuration not stated),96 to 98 °C
8,Cn1cncc1-c1cc(C=NN(CCC(C)(C)O)C(N)=S)nc(NC2CCN(S(C)(=O)=O)CC2)n1,204 to 206 °C
9,COc1cc2nc(Cl)nc(Nc3ccc4[nH]ncc4c3)c2cc1OC,279 to 284 °C
10,CSc1nc(-c2ccc(F)cc2)nc(-c2ccccn2)n1,158 °C
11,COc1cc2c(cc1-c1cnccn1)-c1c(-c3cncs3)c3c(n1CC2)C(=O)N(C(C)(C)C)CCCOC3,235 to 236 °C
12,CC(=O)OCCN1CN(C)C(=S)N(c2ccc(C)cc2C)C1,80 to 83 °C
13,COC(=O)CCCCCCCC(=O)CCC(=O)COC(C)=O,64 to 65 °C
14,O=C(O)c1cc2c(cn1)[nH]c1ccccc12,307 to 309 °C
15,Cc1cc(Cn2nnc(C(N)=O)c2N)cc(C)c1C(=O)c1ccc(Cl)cc1,208 to 209 °C
16,CC(C#CCOc1ccccc1)N(O)C(N)=O (configuration not stated),75 to 77 °C
17,CN1Cc2c(C(=O)OC(C)(C)C)ncn2-c2cccc(Br)c2C1=O,207 to 208 °C
18,Fc1ccc(C#CC2=CCN(Cc3coc4ccccc34)CC2)cc1,79 to 80 °C
19,CSCCNC(=O)c1cccc(-c2cccc3cc(Cc4cccc(C(F)(F)F)c4)oc23)c1,135 to 138 °C

# Now from value to compound:
row,melting point,Compound
1,255 to 258 °C,O=C(O)CCc1c(-c2cc(Cl)ccc2O)c2cc(C(F)(F)F)ccc2[nH]c1=O
2,132 °C,CCOc1nc(O)c(C#N)s1
3,192 to 193 °C,Cc1ccc(CCOc2ccc(CC3SC(=O)NC3=O)cc2)nc1 (configuration not stated)
4,258 to 260 °C,O=C(c1c[nH]c2cc(Br)ccc12)C(F)(F)F
5,113 to 114 °C,CCC(CC)c1ccc(Cl)c2nc3n(c12)CCCCN3c1ccc(C(=O)N(C)C)cc1C
6,140 to 142 °C,CCc1nn(CCC(N)=O)c(CC)c1Cc1cc(Cl)cc(Cl)c1
7,233 to 235 °C,O=C(O)c1ccc(N2CCSCC2)cc1
8,68 to 70 °C,CCCCCCCCC1C(=O)NC(=O)N1CCCCCCC(=O)OCC (configuration not stated)
9,94 to 95 °C,CCCCC1=C(/C=C/C(=O)Oc2ccc([N+](=O)[O-])cc2)CCc2cc(OC)ccc21
10,112 to 113 °C,COC(=O)c1ccc(O)c(N)c1C(=O)OC
11,106 to 107 °C,COc1ccc(OCCCCBr)c(C2Sc3cc(Cl)ccc3N(C)C2=O)c1 (configuration not stated)
12,178 to 179 °C,CCOC(=O)C(C)(C#N)c1cccc(S(=O)(=O)c2ccccc2Cl)c1OC (configuration not stated)
13,156 to 157 °C,COC1=C(OC)C(=O)c2c(cccc2[N+](=O)[O-])C1=O
14,103 to 105 °C,COc1ccc(OCC(O)CCN2CCN(c3ccccc3)CC2)cc1 (configuration not stated)
15,225 to 226 °C,c1ccc2c(c1)ncc1nc(C3CCCCCC3)[nH]c12
16,111 to 113 °C,COc1cccc(OS(=O)(=O)c2ccc(N3CCN(C)C3=O)cc2)c1
17,80 to 81 °C,COC1=C(OC)C(=O)C2=C(CC(CCCCCCCCN3CCN(Cc4ccccc4)CC3)C2)C1=O
18,150 to 151 °C,CCCCC(=O)c1c(CBr)nc2cc(OC)c(OC)cc2c1-c1ccc(OC)c(OC)c1
19,128 to 133 °C,COC(=O)N(CCCc1ccccc1)[C@H]1CC[C@H](c2ccc(O)cc2)CC1
20,221 to 222 °C,CS(=O)(=O)c1ccc(-c2cnn(CC(F)(F)F)c(=O)c2Cl)cc1

row,melting point,Compound
1,165 to 166 °C,CCCc1ccnc2c(=O)[nH]c(-c3cc(S(=O)(=O)NCCN4CCOCC4)ccc3OCC)nc12
2,127 to 129 °C,O=C(O)Cc1cc(Cl)c2c(c1)CCC(c1ccccc1F)N2 (configuration not stated)
3,166 to 168 °C,C=CS(=O)(=O)NCCCc1ccc(-c2ccc(=O)[nH]n2)cc1
4,153 to 154 °C,COc1ccc(Nc2ccc(OC)c3ccccc23)cc1C(=O)O
5,184 to 186 °C,O=C(NO)C(CCN1C(=O)c2ccccc2C1=O)NS(=O)(=O)c1ccc(-c2ccc(Cl)cc2)cc1 (configuration not stated)
6,57 to 76 °C,C[C@H](NC(=O)C[C@H](O)C[C@H](O)/C=C/c1c(C2CC2)nc2ccccc2c1-c1ccc(F)cc1)c1ccccc1
7,128 to 129 °C,COc1cc(CCCC2OC(=O)NC2=O)ccc1OCc1nc(-c2ccccc2)sc1C (configuration not stated)
8,51 to 53 °C,CCCCCCCCCCCCCCC(=O)CC(=O)OC
9,116 to 119 °C,CC(C)(C)[Si](C)(C)OC1CC=C(c2ccc(NC(=O)OCc3ccccc3)c(F)c2)CC1 (configuration not stated)
10,175 to 179 °C,C#CCS(=O)(=O)c1ccc(NC(C)=O)cc1
11,129 to 131 °C,Ic1ccc(SSc2ccc(I)c3ccccc23)c2ccccc12
12,109 to 110 °C,CCOc1cc(Cn2cc(CCC(=O)O)c(-c3ccccc3)c2)cc(OCc2csc(-c3ccccc3)n2)c1
13,> 280 °C,Cn1ncc(C(=O)N2CCC2)c1C(=O)Nc1ccn2nc(-c3ccnc(F)c3)nc2c1
14,131 to 134 °C,O=P(O)(O)c1cccc(OCc2ccc3ccccc3c2)c1
15,149 to 150 °C,COc1cc(C(C)C)c2c(c1)S(=O)(=O)N(COc1cc(C(F)(F)F)nn1-c1cccc(C(F)(F)F)n1)C2=O
16,197 to 199 °C,CNC(=O)c1ccccc1Nc1nc(Nc2cc3c(cc2OC)NC(=O)CCC3(C)C)ncc1Cl
17,79 °C,CCCCc1nc(SCCF)c(C(=O)OCC)n1Cc1ccc(-c2ccccc2C(=O)O)cc1
18,87 to 88 °C,Nc1nonc1NCCCOc1cccc(CN2CCCCC2)c1
19,> 280 °C,Cn1nc2ccc(S)nn2c1=O
20,> 300 °C,C=Cc1ccc(-c2ccc3c4ccc5c6c(ccc(c7cccc2c73)c64)C(=O)N(c2c(C(C)C)cccc2C(C)C)C5=O)cc1

row,melting point,Compound
1,182 to 183 °C,O=C1NC(=O)C(Sc2ccc3cc(O)ccc3c2)S1 (configuration not stated)
2,138 to 139 °C,CCCCOc1c(CNC(=O)OC(C)(C)C)n(CC(C)(C)C)c(=O)c2ccc(/C=C/C(=O)O)cc12
3,154 to 155 °C,CC(C)C(NS(=O)(=O)c1ccccc1)C(=O)NO (configuration not stated)
4,219 to 221 °C,Nc1ccc(-c2nc3c(F)cccc3s2)cc1
5,168 °C,CC(C)(C)OC(=O)[C@H]1CC[C@@H](c2ccccc2)N1C(=O)CNC(=O)Nc1cccc(CO)c1 (racemic)
6,238 to 240 °C,CNC(=O)N1CC(Oc2cccc(C(N)=O)c2)C1
7,160 to 162 °C,CN1N=C(c2ccc(F)cc2)c2ccc(C(F)(F)F)cc2CS1(=O)=O
8,177 to 178 °C,CCOC(=O)/C=C/c1cn(-c2ccccc2)nc1OCc1ccc(OCc2nc(-c3ccco3)oc2C)c(OC)c1
9,107 to 109 °C,Cc1cccc(C(=O)N(NC(C)C)C(C)(C)C)c1
10,166 °C,CNC(=S)NCCN1CCCCC1
11,170 to 172 °C,Fc1ccc(CNc2nc(OCC(F)(F)F)nc(-c3ccccc3)n2)cc1
12,310 °C,Cc1ccc(S(N)(=O)=O)cc1NC(=O)c1cnn2c(C(F)(F)F)cc(-c3ccc(C(F)(F)F)cc3)nc12
13,207 to 208 °C,CC(C)c1cc2ncccc2cc1Oc1cnc(N)nc1N
14,293 to 300 °C,Nc1ncc2c(n1)-c1sc(N)nc1CC2
15,> 300 °C,CC(C)(N)[C@@H]1CCN(c2cc3c(c(N)c2F)c(=O)c(C(=O)O)cn3C2CC2)C1
16,166 °C,Oc1cc2c(c3c1CC=CC3)Nc1ccccc1S2
17,248 °C,OC1CSC(Oc2ccc(-c3ccncc3)nc2)C(O)C1O (configuration not stated)
18,74 °C,CCCCCC1C=CC(c2ccc(Br)cc2)=CC1 (configuration not stated)
